# Data taken from ChEMBL document CHEMBL1140259, “Isomeric thiazole derivatives as ligands for the neuropeptide Y5 receptor” (Bioorg Med Chem Lett, 2005).
# pIC50: −log10 of the molar value.
# Biological target: T1, Neuropeptide Y receptor type 5 (Mus musculus) (UniProt O70342)
# T1 sequence (whole entry): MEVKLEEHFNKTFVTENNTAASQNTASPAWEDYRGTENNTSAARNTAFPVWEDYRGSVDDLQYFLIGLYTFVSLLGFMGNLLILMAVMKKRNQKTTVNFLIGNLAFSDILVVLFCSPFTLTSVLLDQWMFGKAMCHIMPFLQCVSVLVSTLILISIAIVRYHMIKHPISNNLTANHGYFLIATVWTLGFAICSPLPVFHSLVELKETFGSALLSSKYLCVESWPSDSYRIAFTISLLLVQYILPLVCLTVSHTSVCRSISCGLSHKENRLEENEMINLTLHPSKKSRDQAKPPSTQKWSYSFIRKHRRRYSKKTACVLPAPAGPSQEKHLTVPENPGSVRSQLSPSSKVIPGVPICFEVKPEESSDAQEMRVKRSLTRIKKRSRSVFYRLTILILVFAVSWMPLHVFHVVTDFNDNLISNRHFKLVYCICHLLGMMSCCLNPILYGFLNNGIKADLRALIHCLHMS
# Experiment: Percent inhibition against mouse NPY5 receptor at 1 um
row,inhibition [%],Structure (SMILES)
1,16,Cc1ccccc1C(=O)c1csc(NCCCNS(=O)(=O)c2ccc(F)cc2)n1
2,12,COc1cccc(S(=O)(=O)NCCCNc2nc(C(=O)c3ccccc3C)cs2)c1

# Biological target: T2, Neuropeptide Y receptor type 5 (Mus musculus, UniProt O70342)
# T2 sequence (O70342 whole entry): T1 sequence (whole entry)
# Experiment: Inhibitory concentration against mouse NPY5 receptor […]
row,pIC50,Structure (SMILES)
1,8.80,COc1ccc(OC)c(S(=O)(=O)NCCCNc2ncc(C(=O)c3ccccc3C)s2)c1
2,9.15,COc1ccc(C)cc1S(=O)(=O)NCCCNc1ncc(C(=O)c2ccccc2C)s1
3,5.00,Cc1ccccc1C(=O)c1cnc(NCCCNS(=O)(=O)c2ccc(F)cc2)s1
4,8.05,Cc1ccccc1C(=O)c1csc(NCCCNS(=O)(=O)c2cc(C(F)(F)F)ccc2Cl)n1
5,7.96,COc1cccc(S(=O)(=O)NCCCNc2ncc(C(=O)c3ccccc3C)s2)c1
6,7.19,Cc1ccccc1C(=O)c1csc(NCCCNS(=O)(=O)c2cccc(F)c2)n1
7,7.96,Cc1ccccc1C(=O)c1csc(NCCCNS(=O)(=O)c2cccs2)n1
8,8.26,Cc1ccccc1C(=O)c1cnc(NCCCNS(=O)(=O)c2cccc(F)c2)s1
9,7.77,COc1ccc(OC)c(S(=O)(=O)NCCCNc2nc(C(=O)c3ccccc3C)cs2)c1
10,9.00,Cc1ccccc1C(=O)c1cnc(NCCCNS(=O)(=O)c2cccs2)s1
11,9.07,Cc1ccccc1C(=O)c1cnc(NCCCNS(=O)(=O)c2cc(C(F)(F)F)ccc2Cl)s1
